Test results published in the supplement of paper PMC10477900.
pIC50: −log10 of the molar value.

Tests used:
HCT116 [1] = assay: viability inhibition vs untreated; higher = more cytotoxic; conditions: 72 h
HCT116 [2] = conditions: 72 h
Method: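 HCT116 control and MTA1-KO (CRISPR) HCT116 cells were seeded in 384-well plates (800 cells/well), treated 16 h later with 237 metabolism-related anticancer drugs at five doses (10 uM, 2 uM, 400 nM, 80 nM, 16 nM) for 72 h, two replicates; viability by CCK8. Values are % inhibition of viability relative to untreated cells, plus fitted IC50.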

| Structure (SMILES) | viability inhibition (HCT116 [1]; genotype: MTA1-KO, 16 nM) | viability inhibition (HCT116 [1]; genotype: MTA1-KO, 80 nM) | viability inhibition (HCT116 [1]; genotype: MTA1-KO, 400 nM) | viability inhibition (HCT116 [1]; genotype: MTA1-KO, 2000 nM) | viability inhibition (HCT116 [1]; genotype: MTA1-KO, 10000 nM) | viability inhibition (HCT116 [1]; genotype: control, 16 nM) | viability inhibition (HCT116 [1]; genotype: control, 80 nM) | viability inhibition (HCT116 [1]; genotype: control, 400 nM) | viability inhibition (HCT116 [1]; genotype: control, 2000 nM) | viability inhibition (HCT116 [1]; genotype: control, 10000 nM) | pIC50 (HCT116 [2]; genotype: MTA1-KO) | pIC50 (HCT116 [2]; genotype: control) |
| --- | --- | --- | --- | --- | --- | --- | --- | --- | --- | --- | --- | --- |
| CC(=NNC(=S)N1CCC1)c1ccccn1 | 113% | 110% | 111% | 108% | 107% | 107% | 110% | 95.8% | 105% | 111% | > 7.80 | > 7.80 |
| CC(C)(C#N)c1ccc(N2C(=O)OCc3cnc4ccc(-c5cnc6ccccc6c5)cc4c32)cc1 | -21.1% | -19.6% | -26.7% | -3.23% | 30.7% | 8.09% | -11.9% | -11.4% | -0.304% | 45.6% | < 5.00 | < 5.00 |
| CCCC[S+]([O-])c1sc2nc(-c3cccs3)cc(-c3ccccc3)c2c1N (stereo not drawn) | 13.3% | 12.3% | 5.6% | 9.12% | 41.9% | 5.17% | 3.85% | 2.26% | 4.74% | 8.23% | < 5.00 | < 5.00 |
| CCc1ccc(/C=C2/SC(=S)NC2=O)cc1 | -4.9% | -10% | -9.11% | -3.79% | 1.27% | 7.22% | 4.14% | 13% | 9.23% | 12.7% | < 5.00 | < 5.00 |
| CN1CCN(C(=O)/C=C/c2ccc([N+](=O)[O-])o2)CC1 | -10.2% | -18.9% | -24% | -18.6% | 19.7% | 0.552% | -3.92% | -15.2% | -0.064% | 11% | < 5.00 | < 5.00 |
| CN1CCN(C(=O)COc2ccc(C34CC5CC(CC(C5)C3)C4)cc2)CC1 | 0.53% | 0.971% | 2.4% | 3.12% | 55.4% | -2.5% | -2.81% | -1.07% | -8.95% | 7.86% | 5.03 | < 5.00 |
| CO[C@@H](C)Cn1c(=O)n(C)c2cnc3ccc(-c4cncc(C(C)(C)O)c4)cc3c21 | -8.01% | 27.7% | 58.8% | 90.6% | 102% | -0.225% | -9.63% | 58.5% | 90.9% | 104% | 6.54 | 6.42 |
| COc1ccc(-c2ccc3c(N4CCOCC4)nc(N4C[C@@H](C)O[C@@H](C)C4)nc3n2)cc1CO | 14.6% | 18.1% | 36.5% | 68.5% | 82.3% | 13.2% | 20.4% | 21.5% | 59.4% | 72.9% | 6.12 | 5.65 |
| COc1ccc(-c2ccccc2)cc1NS(=O)(=O)c1cc(Cl)cc(Cl)c1O | 4.57% | -1.5% | -3.79% | -1.98% | 8.72% | -1.23% | 6.1% | 4.53% | 6.77% | 13.4% | < 5.00 | < 5.00 |
| Cc1ccc(S(=O)(=O)Cc2nc(-c3ccc(C(=O)NCc4cccnc4)cc3)oc2C)cc1 | 5.08% | -6.5% | -22.3% | -11.9% | 2.23% | 9.95% | 6.71% | 18.9% | 19% | 26.9% | < 5.00 | < 5.00 |
| Cc1ccc2nc(CN(CCN(Cc3nc4ccc(C)cc4[nH]3)Cc3nc4ccc(C)cc4[nH]3)Cc3nc4ccc(C)cc4[nH]3)[nH]c2c1 | 0.589% | -11.3% | -3.97% | 0.541% | 76.8% | 6.37% | 14.6% | 2.85% | 20.1% | 64.1% | 5.19 | 5.13 |
| Cc1nc(-c2nc(-c3ccc(OC(F)(F)F)cc3)no2)nn1Cc1cccc(N2CCC(S(C)(=O)=O)CC2)c1 | 1.35% | 25% | 26.2% | 29.9% | 45.9% | 13.9% | 17.5% | 21.8% | 14.5% | 23.9% | < 5.00 | < 5.00 |
| N#Cc1c(O)c2c(-c3ccc(-c4ccccc4O)cc3)csc2[nH]c1=O | 7.25% | 0.475% | 5.93% | 6.59% | 21.8% | -9.79% | -10.7% | -8.84% | -17.7% | 3.16% | < 5.00 | < 5.00 |
| NCC(=O)Nc1ccc(-n2nc(C(F)(F)F)cc2-c2ccc3c(ccc4ccccc43)c2)cc1 | -0.655% | 3.58% | 10.6% | 45.3% | 77% | 8.04% | 10.5% | 9.27% | 67% | 74.1% | 5.59 | 5.82 |
| Nc1nonc1C(=Nc1ccc(F)c(Cl)c1)NO | 11.1% | 13.3% | 16.9% | 23.6% | 36.3% | 10.4% | 19% | -4.25% | 11% | 9.01% | < 5.00 | < 5.00 |
| O=C(O)c1c[nH]c2cc(Cl)c(-c3ccc(C4(O)CCC4)cc3)cc12 | -7.04% | 0.458% | -9.68% | 0.998% | 72.2% | -1.55% | -12.5% | -12.9% | -5.3% | 7.54% | 5.40 | < 5.00 |
| O=C(Oc1cc(S(=O)(=O)c2ccccc2)ccc1[N+](=O)[O-])c1ccc(Cl)cc1 | 13.8% | 11.7% | 15.7% | 20% | -32.5% | -2.81% | -4.51% | -7.2% | -8.31% | 16.7% | < 5.00 | < 5.00 |
| O=C1CC(c2c[nH]c3ccc(F)cc23)C(=O)N1 (stereo not drawn) | 7.19% | 3.94% | 6.53% | 3.06% | 34% | 15.5% | -12.9% | -15.6% | -1.97% | 11.6% | < 5.00 | < 5.00 |
| O=C1NC(=O)/C(=C/c2ccc3nccc(-c4ccncc4)c3c2)S1 | -12% | -22.4% | 10.1% | 64.1% | 99.4% | 1.82% | -12% | 5.41% | 56.4% | 75.1% | 5.92 | 5.69 |
